{"source": "patent US20160281133A1", "about": "“STABILIZATION AND ISOLATION OF EXTRACELLULAR NUCLEIC ACIDS” (QIAGEN GMBH, priority 2013, published 2016)", "key": {"HeLa cell mitochondria": {"system": "HeLa cell mitochondria", "settings": "at 5 μM; cited from earlier work"}, "calpain II": {"molecular_target": "T1, calpain II (Homo sapiens, UniProt P17655)", "T1 sequence (P17655 1-700)": "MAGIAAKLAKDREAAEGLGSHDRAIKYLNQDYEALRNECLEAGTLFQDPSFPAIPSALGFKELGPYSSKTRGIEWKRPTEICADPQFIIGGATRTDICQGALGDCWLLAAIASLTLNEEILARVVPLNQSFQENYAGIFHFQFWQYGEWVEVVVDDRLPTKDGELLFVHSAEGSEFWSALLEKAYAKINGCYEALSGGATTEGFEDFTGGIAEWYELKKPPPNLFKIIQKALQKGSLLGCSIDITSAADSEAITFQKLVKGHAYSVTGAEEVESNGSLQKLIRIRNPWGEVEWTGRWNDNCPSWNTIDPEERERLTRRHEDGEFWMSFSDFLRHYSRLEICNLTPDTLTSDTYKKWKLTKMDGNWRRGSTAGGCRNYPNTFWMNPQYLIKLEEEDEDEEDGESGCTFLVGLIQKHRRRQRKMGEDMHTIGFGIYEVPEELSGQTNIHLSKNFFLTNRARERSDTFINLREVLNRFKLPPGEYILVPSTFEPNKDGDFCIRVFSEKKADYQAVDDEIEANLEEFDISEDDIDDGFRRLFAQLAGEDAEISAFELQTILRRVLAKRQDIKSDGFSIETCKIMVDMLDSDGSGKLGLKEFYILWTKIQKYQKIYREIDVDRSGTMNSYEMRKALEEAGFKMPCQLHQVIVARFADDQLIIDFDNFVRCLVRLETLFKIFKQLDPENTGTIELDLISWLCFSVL", "T1 sequence (P04632 1-268 partner)": "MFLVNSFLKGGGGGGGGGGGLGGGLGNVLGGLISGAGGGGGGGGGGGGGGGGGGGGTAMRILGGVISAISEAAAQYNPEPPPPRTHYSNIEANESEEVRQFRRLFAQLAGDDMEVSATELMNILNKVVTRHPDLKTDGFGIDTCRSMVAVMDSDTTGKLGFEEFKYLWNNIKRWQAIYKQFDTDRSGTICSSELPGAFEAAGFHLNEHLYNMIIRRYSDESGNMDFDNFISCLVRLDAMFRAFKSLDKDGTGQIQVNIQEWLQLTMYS", "settings": "cited from earlier work"}, "cathepsin L": {"molecular_target": "cathepsin L (Homo sapiens, UniProt P07711)", "sequence (P07711 114-333, species assumed)": "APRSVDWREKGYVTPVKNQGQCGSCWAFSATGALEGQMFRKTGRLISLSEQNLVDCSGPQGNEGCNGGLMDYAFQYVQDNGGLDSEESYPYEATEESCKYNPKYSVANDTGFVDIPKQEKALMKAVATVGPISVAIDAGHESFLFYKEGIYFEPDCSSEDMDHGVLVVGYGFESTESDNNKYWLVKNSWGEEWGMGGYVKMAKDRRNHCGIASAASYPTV", "settings": "cited from earlier work"}, "[1]": {"molecular_target": "N-SMase (neutral sphingomyelinase)", "settings": "rat brain; cited from earlier work"}, "MCF7 breast cancer cells": {"system": "MCF7 breast cancer cells", "settings": "at 20 μM; cited from earlier work"}, "[2]": {"settings": "in neuron culture medium at 37° C.; cited from earlier work"}, "whole blood samples [3]": {"system": "whole blood samples", "assay": "DNA size distribution by chip gel electrophoresis (blood cell stability/DNA release)", "type": "cell-based, human", "settings": "20 μM in 10 ml K2E blood; day 3 and day 7", "description": "To separate the blood plasma from the whole blood, the blood samples were centrifuged for 15 min at 5000 rpm, and the obtained plasma samples were again centrifuged for 10 min at 16.000×g at 4° C.\nThe circulating, extracellular nucleic acids were purified from the obtained plasma samples using the QIAamp® Circulating NA Kit (QIAGEN, according to the handbook). In brief: • 10 ml sample input; • lysis: 1 ml Proteinase K and 8 ml Buffer ACL (QIAGEN) • binding: 18 ml Buffer ACB (QIAGEN) • wash-steps: unchanged and according to handbook • elution in 60 μl Buffer AVE (QIAGEN)\n1.3.1 Measurement of the blood cell stability/DNA release by the determination of DNA size distribution using a chip gel electrophoresis (2100 Bioanalyzer; Agilent Technologies; Inc., USA) according to manufacturer's instruction (see handbook Agilent DNA 7500 and DNA 12000 Kit Guide), but 1.5 μl instead of 1 μl sample were transferred to the wells.\nEach tested caspase inhibitor was added to whole blood samples (20 μM end concentration in 10 ml blood; blood was collected into Vacutainer K2E Tubes; BD). The whole blood sample was processed as described in section 1 (plasma preparation and nucleic acid isolation).\nThe eluted circulating cell-free DNA was separated by size using chip gel electrophoresis (for details on the method see above). […]"}, "whole blood samples [4]": {"system": "whole blood samples", "assay": "18S DNA duplex real time PCR assay, increase of DNA in plasma of stored blood, example 5", "type": "cell-based, human", "settings": "20 μM caspase inhibitor in whole blood; storage at RT"}, "cells": {"system": "cells", "settings": "even at extremely high concentrations; cited from earlier work"}, "white blood cells": {"system": "white blood cells", "assay": "18S rDNA qPCR (66 bp / 500 bp): release of genomic DNA into plasma of stored stabilized blood, examples 1-4", "type": "cell-based, human", "description": "Blood from two different donors was collected into 10 ml K2 EDTA tubes (BD). 4.5 ml of the respectively collected blood was mixed with 0.9 ml of two different stabilization solutions A and B. Said stabilization solutions contained (per ml of stabilization solution):\nA: 34.2 mg K2 EDTA and 0.15 g or 0.18 g butanamide in water When using stabilization solution A, the following final concentration in the blood/stabilization mixture was obtained: 7.2 mg K2 EDTA/ml and 2.5% (w/v) or 3% (w/v) butanamide. […] When using stabilization solution B, the following final concentration in the blood/stabilization mixture was obtained: 7.2 mg K2 EDTA/ml, 3% (w/v) butanamide and 1 μM Quinoline-Val-Asp-CH2-OPH (caspase inhibitor).\nAll stabilized blood samples were set up in triplicates per condition and test time point. At time point 0 (reference), immediately after mixing the stabilization solution and blood, plasma was generated and the circulating extracellular DNA was extracted. The residual stabilized blood sample was stored for three days and six days at room temperature.\nPlasma was generated from the stabilized and unstabilized (EDTA) blood samples by inverting the blood containing tubes for four times. Then, the tubes were centrifuged for 10 minutes at 1900×g at 4° C. 2.5 ml of the plasma fraction was transferred into a fresh 15 ml falcon tube and centrifuged for 10 minutes at 16.000×g at 4° C. 2 ml of the respectively cleared plasma was used for extracellular nucleic acid isolation using the QIAamp circulating nucleic acid kit (QIAGEN) according to the manufacturer's instructions.\nThe isolated extracellular DNA was analyzed using two different qPCR assays, targeting different fragment lengths of the 18S ribosomal DNA:\n18S ribosomal DNA: 66 bp amplicon 18S ribosomal DNA: 500 bp amplicon\nCycle threshholds of the individual samples were translated into amount of gDNA in the eluate, according to a gDNA standard curve. The gDNA amount of the storage time points was compared to the time zero gDNA level from the same donor and is shown as fold increase in the figures. […]"}, "caspase-3": {"molecular_target": "T2, caspase-3 (Homo sapiens, UniProt P42574)", "T2 sequence (P42574 29-175 limits assumed)": "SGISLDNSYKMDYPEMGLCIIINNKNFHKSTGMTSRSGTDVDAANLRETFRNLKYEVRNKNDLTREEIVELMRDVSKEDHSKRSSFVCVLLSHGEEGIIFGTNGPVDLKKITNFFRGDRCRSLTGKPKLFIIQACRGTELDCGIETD", "T2 sequence (P42574 176-277 limits assumed)": "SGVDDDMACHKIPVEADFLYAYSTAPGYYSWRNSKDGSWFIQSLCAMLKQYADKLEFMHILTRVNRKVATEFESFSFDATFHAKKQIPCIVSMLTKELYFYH", "settings": "cited from earlier work"}, "caspase-1": {"molecular_target": "T3, caspase-1 (Homo sapiens, UniProt P29466)", "T3 sequence (P29466 120-297 limits assumed)": "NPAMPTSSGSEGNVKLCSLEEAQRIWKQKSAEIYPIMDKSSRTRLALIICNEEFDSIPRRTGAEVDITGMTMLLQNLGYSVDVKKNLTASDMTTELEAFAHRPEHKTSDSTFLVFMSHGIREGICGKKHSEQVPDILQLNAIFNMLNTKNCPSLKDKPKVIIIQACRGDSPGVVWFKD", "T3 sequence (P29466 317-404 limits assumed)": "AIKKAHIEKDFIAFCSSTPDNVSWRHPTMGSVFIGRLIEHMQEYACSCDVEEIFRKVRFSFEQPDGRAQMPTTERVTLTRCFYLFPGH", "settings": "cited from earlier work"}}, "note": "Where a name gives a salt, the structure may show the parent alone. Where a SMILES comes first, the peptide text is derived from it. The star is where a group is joined. Cbz = O=C(OCc1ccccc1)*", "data": [{"molecule": "OC(CN1CCNCC1)Cn1c2ccc(Br)cc2c2cc(Br)ccc21", "note": "(racemic) [Bax Channel Blocker, (±)-1-(3,6-Dibromocarbazol-9-yl)-3-piperazin-1-yl-propan-2-ol, bis TFA]", "values": [{"measurement": "inhibition of Bid-induced cytochrome c release", "setting": "HeLa cell mitochondria", "value": "cyctochrome c release from HeLa cell mitochondria (~80%"}]}, {"molecule": "CC(C)C(NC(=O)OCc1ccccc1)C(=O)NC(C=O)Cc1ccccc1", "note": "(stereo not drawn) [Calpain Inhibitor III, Z-Val-Phe-CHO] (Cbz-Val-Phe-aldehyde; configuration not given here)", "values": [{"measurement": "Ki", "setting": "calpain II", "value": 8, "unit": "nM"}]}, {"molecule": "CC(C)C[C@H](NC(=O)OCc1ccccc1)C(=O)N[C@@H](CC(C)C)C(=O)N[C@@H](Cc1ccc(O)cc1)C(=O)CF", "note": "[Calpain Inhibitor IV, Z-Leu-Leu-Tyr-CH2F] (HELM PEPTIDE1{[O=C(OCc1ccccc1)[*:2]].L.L.Y.[FC[*:1]]}$$$$V2.0)", "values": [{"measurement": "k2", "setting": "calpain II; irreversible inhibitor", "value": "28,900 M−1s−1). Also acts as an inhibitor of cathepsin L (k2 ="}, {"measurement": "k2", "setting": "cathepsin L", "value": "680,000 M−1s−1)."}]}, {"molecule": "O=C(C=Cc1ccc(C=CC(=O)Nc2ccc(C3=NCCN3)cc2)cc1)Nc1ccc(C2=NCCN2)cc1", "note": "[GW 4869]", "values": [{"measurement": "IC50", "setting": "[1]", "value": "~1000", "unit": "nM"}, {"measurement": "protection against TNF-α or diamine-induced cell death", "setting": "MCF7 breast cancer cells", "value": "specific PLC. Reported to offer complete protection against TNF-α"}]}, {"molecule": "N=c1sc2c(n1CC(=O)c1ccc([N+](=O)[O-])cc1)CCCC2", "note": "[Pifithrin-α, p-Nitro]", "values": [{"measurement": "t½", "setting": "[2]", "value": "biological systems (t½ = 8 h in neuron culture medium at 37° C.)."}]}, {"molecule": "CC(C)C(NC(=O)c1ccc2ccccc2n1)C(=O)NC(CC(=O)O)C(=O)COc1c(F)cccc1F", "note": "(stereo not drawn) [Q-VD-OPh, Quinoline-Val-Asp-CH2-OPH]", "values": [{"measurement": "ladder-like pattern of bands (release and fragmentation of genomic DNA) compared to controls", "setting": "whole blood samples [3]", "value": "significantly reduced ladder-like patterns"}, {"measurement": "increase of DNA from day 0 to day 3 or 7", "setting": "whole blood samples [4]", "value": "reduced increase of DNA"}, {"measurement": "toxicity to cells", "setting": "cells", "value": "not toxic to cells"}]}, {"molecule": "CCCC(N)=O", "note": "[butanamide]", "values": [{"measurement": "stabilization capabilities compared to DMAA", "setting": "white blood cells; Example 2, 2.5, 3, 3.5% (w/v) butanamide with 1 μM caspase inhibitor and EDTA vs 5% DMAA", "value": "at least comparable stabilization capabilities to DMAA"}, {"measurement": "stabilization capabilities compared to the stabilization solution comprising DMAA", "setting": "white blood cells; Example 3, 0.5, 1.5, 2% butanamide in combination with 2.5, 1.5, 1% DMPA, 1 μM caspase inhibitor, EDTA", "value": "comparable stabilization capabilities"}, {"measurement": "increase in 18S rDNA", "setting": "white blood cells; Example 4, 0.5, 1.5, 2.5% (w/v) butanamide with 1 μM caspase inhibitor and 7.2 mg K2EDTA/ml", "value": "significantly reduced increase in 18S rDNA"}]}, {"molecule": "Ac-Ala-Ala-Val-Ala-Leu-Leu-Pro-Ala-Val-Leu-Leu-Ala-Leu-Leu-Ala-Pro-Asp-Glu-Val-Asp-CHO (Ac-AAVALLPAVLLALLAPDEVD-aldehyde; SMILES CC(=O)N[C@@H](C)C(=O)N[C@@H](C)C(=O)N[C@H](C(=O)N[C@@H](C)C(=O)N[C@@H](CC(C)C)C(=O)N[C@@H](CC(C)C)C(=O)N1CCC[C@H]1C(=O)N[C@@H](C)C(=O)N[C@H](C(=O)N[C@@H](CC(C)C)C(=O)N[C@@H](CC(C)C)C(=O)N[C@@H](C)C(=O)N[C@@H](CC(C)C)C(=O)N[C@@H](CC(C)C)C(=O)N[C@@H](C)C(=O)N1CCC[C@H]1C(=O)N[C@@H](CC(=O)O)C(=O)N[C@@H](CCC(=O)O)C(=O)N[C@H](C(=O)N[C@H](C=O)CC(=O)O)C(C)C)C(C)C)C(C)C) [Caspase-3 Inhibitor I, Cell-Permeable]", "values": [{"measurement": "Ki", "setting": "caspase-3", "value": "< 1", "unit": "nM"}]}, {"molecule": "Ac-Ala-Ala-Val-Ala-Leu-Leu-Pro-Ala-Val-Leu-Leu-Ala-Leu-Leu-Ala-Pro-Tyr-Val-Ala-Asp-CHO (Ac-AAVALLPAVLLALLAPYVAD-aldehyde; SMILES CC(=O)N[C@@H](C)C(=O)N[C@@H](C)C(=O)N[C@H](C(=O)N[C@@H](C)C(=O)N[C@@H](CC(C)C)C(=O)N[C@@H](CC(C)C)C(=O)N1CCC[C@H]1C(=O)N[C@@H](C)C(=O)N[C@H](C(=O)N[C@@H](CC(C)C)C(=O)N[C@@H](CC(C)C)C(=O)N[C@@H](C)C(=O)N[C@@H](CC(C)C)C(=O)N[C@@H](CC(C)C)C(=O)N[C@@H](C)C(=O)N1CCC[C@H]1C(=O)N[C@@H](Cc1ccc(O)cc1)C(=O)N[C@H](C(=O)N[C@@H](C)C(=O)N[C@H](C=O)CC(=O)O)C(C)C)C(C)C)C(C)C) [Caspase-1 Inhibitor I, Cell-Permeable]", "values": [{"measurement": "Ki", "setting": "caspase-1", "value": 1, "unit": "nM"}]}, {"molecule": "Ac-Tyr-Val-Ala-Asp-CMK [Caspase-1 Inhibitor II]", "values": [{"measurement": "Ki", "setting": "caspase-1", "value": 0.76, "unit": "nM"}]}]}
